# Experimental data taken from US5610160A, “Topical 5-fluorouracil prodrug composition and method” (priority 1994, dated 1997).
# Like-named read-outs stand apart in the source and are kept apart here.
# Columns and labels:
# [1] = 22° C.; Buur et al (1986); compound 11 from Buur et al (1987); cited from earlier work
# [2] = Solubility of prodrug in isopropyl myristate (IPM); settings: isopropyl myristate, organic solvent or mixture
# Description: The results from the determination of the physicochemical properties are recorded in the tables as CIPM (the saturated solubility of the prodrug in the isopropyl myristate (IPM) vehicle/formulation in which the prodrug was applied to the mouse skins), K (the partition coefficients of the prodrug between IPM and a pH 4.0 acetate buffer) and Cw (the solubility of the prodrug in pH 4.0 acetate buffer calculated from the partition coefficient and the IPM solubility).
# skin malignancies = settings: topical, cited from earlier work
# [3] = Diffusion cell experiments: delivery of 5-FU through hairless mouse skin; assay type: in vitro ADME; settings: for Ji, flux of 5-FU through the skin: from suspensions of prodrugs in IPM, hairless mouse skin; for Cs, amount of 5-FU in the skin: leached from hairless mouse skin in 24 hours subsequent to application of prodrug in vehicle for 48 hours; for Jj, flux of theophylline through the skin after application of the prodrug/formulation (relative damage): theophylline from suspension in PG
# Description: The diffusion cell experiments were conducted as described by Sloan et al in J. Invest.
# ^b Flux in mg/cm^2 hour of 5FU from suspensions of prodrugs in
# ^c Amount of 5FU in mg leached from hairless mouse skin in 24 hours
# subsequent to application of prodrug in vehicle for 48 hours.
# ^d Flux in mg/cm^2 hour of theophylline from suspension in PG.
# [4] = cited from earlier work
# not told = settings: 22 °C; cited from earlier work
# [5] = 37° C., 80% human plasma; Buur et al (1986); compound 11 from Buur et al (1987); cited from earlier work
# [6] = Partition coefficient between IPM and pH 4.0 acetate buffer; assay type: physicochemical; settings: 23 ± 1° C.
# Text: ^a Partition coefficient between IPM and pH 4.0 acetate buffer at 23
# [7] = 37° C., 0.05 M phosphate buffer pH 7.4; Buur et al (1986); compound 11 from Buur et al (1987); cited from earlier work
# [8] = shake-flask, brief shaking, IPM phase analyzed immediately; settings: 23 ± 1 °C
SMILES,"Cw, solubility at pH 4.0 acetate buffer [1] [mg/ml]",solubility [2] [µg/mL],treating superficial lesions (skin malignancies; actinic keratoses and basal cell carcinomas),treating deeper lesions or actinic keratoses of the extremities (skin malignancies),"Ji, flux of 5-FU through the skin [3] [mg/cm^2 hour]","Cs, amount of 5-FU in the skin [3] [mg]","Jj, flux of theophylline through the skin after application of the prodrug/formulation (relative damage) [3] [mg/cm^2 hour]","log K, octanol/pH 4.0 acetate buffer ([4]; octanol/acetate buffer, pH 4)",log partition octanol / pH 4.0 acetate buffer (not told) [log10 concentration ratio],"Half-life, 80% Plasma [5] [min]","K, partition coefficient between IPM and pH 4.0 acetate buffer [6]","log K, octanol/pH 4.0 acetate buffer ([4]; 22° C., J. Pharm. Sci. 75, 522, Buur et al (1986), compound 11 from Int. J. Pharm. 36, 41 (1987))","Half-life, Buffer [7] [h]",log partition isopropyl myristate / pH 4.0 acetate buffer [8] [concentration ratio]
"O=c1[nH]cc(F)c(=O)[nH]1 [Compound 5-FU, 5-fluorouracil]",11.1,6.4,successful,ineffective,0.0311,0.48,0.215,-0.83,,,,,,
CCCCCCOC(=O)n1cc(F)c(=O)[nH]c1=O [Compound 11],1.5,8700,,,0.195,1.38,0.321,,2.04,2.0,31.1,2.04,9.17,31.1
